Data reported in patent publication US9212180B2 (priority 2013, dated 2015).

How the values were obtained:
menin-MLL interaction = biological target: T1, menin-MLL interaction (Homo sapiens, UniProt O00255); assay: biochemical;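 note: fluorescence polarization competition assay, inhibitors lower the fluorescence anisotropy signal, IC50 taken from this drop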
T1 sequence (O00255 1-610): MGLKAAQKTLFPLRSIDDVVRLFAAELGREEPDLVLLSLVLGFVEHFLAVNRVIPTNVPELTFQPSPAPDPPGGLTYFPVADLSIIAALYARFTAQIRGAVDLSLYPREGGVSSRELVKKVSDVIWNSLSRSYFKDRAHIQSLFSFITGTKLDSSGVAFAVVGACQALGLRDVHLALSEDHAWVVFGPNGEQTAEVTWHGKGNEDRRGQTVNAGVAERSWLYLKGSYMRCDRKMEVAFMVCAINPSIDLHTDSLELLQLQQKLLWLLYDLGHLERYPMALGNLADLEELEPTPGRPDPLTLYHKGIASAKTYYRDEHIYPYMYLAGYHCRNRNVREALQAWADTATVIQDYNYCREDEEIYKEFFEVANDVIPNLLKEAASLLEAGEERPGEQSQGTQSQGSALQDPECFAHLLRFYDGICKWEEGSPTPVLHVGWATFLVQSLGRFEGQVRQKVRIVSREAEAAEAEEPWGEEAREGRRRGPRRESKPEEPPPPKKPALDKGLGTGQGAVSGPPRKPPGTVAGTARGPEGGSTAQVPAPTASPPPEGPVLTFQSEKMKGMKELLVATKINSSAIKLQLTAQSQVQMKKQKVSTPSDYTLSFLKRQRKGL
Method: Fluorescence Polarization Assay.
Compounds that inhibit the interaction decrease the fluorescence anisotropy which is being used as a read-out for compound screening and for IC50 determination. For validation of the FP assay, a control competition experiment with unlabeled MLL peptide (no fluorescein attached) was performed.

[1] = tested on: MLL-AF9 transformed murine bone marrow cells; assay: Differentiation of MLL-AF9 transformed murine bone marrow cells; assay type: cell-based
[2] = tested on: MLL-AF9 transformed murine bone marrow cells; assay: Colony forming assay in MLL-AF9 transformed murine bone marrow cells; assay type: cell-based; settings: FIG. 10
MV4;11 [3] = assay: Apoptosis in human MLL leukemia cell line MV4;11; assay type: cell-based; settings: FIG. 8A
MonoMac-6 = assay: Differentiation of human MLL leukemia cell line MonoMac-6; assay type: cell-based; settings: FIG. 7
Kasumi-1 = assay: Apoptosis in control cell line Kasumi-1 without MLL translocation; assay type: cell-based; settings: Kasumi-1 control cell line without MLL translocation; FIG. 8B
MLL leukemia cells = assay: Cell cycle arrest in MLL leukemia cells; assay type: cell-based; settings: different MLL leukemia cells; FIG. 9
KOPN8 = assay: Differentiation of human MLL leukemia cell line KOPN8; assay type: cell-based; settings: FIG. 7
ML-2 = assay: Apoptosis in human MLL leukemia cell line ML-2; assay type: cell-based; settings: FIG. 8A
MI-2 = assay: Differentiation of human MLL leukemia cell line MI-2; assay type: cell-based; settings: FIG. 7
MV4;11 [4] = assay: Differentiation of human MLL leukemia cell line MV4;11; assay type: cell-based; settings: FIG. 6, FIG. 7
Hoxa9 and Meis1 = assay: Expression level of Hoxa9 and Meis1 in MLL-AF9 transformed bone marrow cells; assay type: cell-based, murine; settings: FIG. 1B

Row | Compound | IC50 (menin-MLL interaction) [µM] | also measured
1 | CC(COc1ccc(C#N)c(F)c1)CN1CCC(C(O)(c2ccccc2)c2ccccc2)CC1 (stereo not drawn) [Compound B49] | 70.8 | 
2 | CC(CCN1CCC(C(O)(c2ccccc2)c2ccccc2)CC1)Oc1ccc([N+](=O)[O-])cc1Cl (stereo not drawn) [Compound B52] | 55 | 
3 | CS(=O)(=O)NCc1ccc(OCCCN2CCC(C(O)(c3ccccc3)c3ccccc3)CC2)cc1 [Compound B25] | 40 | 
4 | Oc1ccccc1-c1ccc(OCCCN2CCC(C(O)(c3ccccc3)c3ccccc3)CC2)cc1 [Compound B29] | 8.3 | 
5 | N#Cc1ccc(OCCCN2CCC(C(O)(c3ccccn3)C3CCCC3)CC2)cn1 (stereo not drawn) [Compound B64] | 4.05 | 
6 | OC(c1ccccc1)(c1ccccc1)C1CCN(CCCOc2ccc(-c3cncnc3)cc2)CC1 [Compound B39] | 83 | 
7 | OC(c1ccccc1)(c1ccccc1)C1CCN(CCCOc2ccncc2)CC1 [Compound B37] | 25 | 
8 | N#Cc1ccc(OCCCN2CCC(C(O)(C3CCCC3)C3CCCCN3)CC2)cc1 (stereo not drawn) [Compound B63] | 28 | 
9 | N#Cc1ccc(OC[C@@H](O)CN2CCC(C(O)(c3ccccc3)C3CCCC3)CC2)cc1 (stereo partly drawn) [Compound B43] | 0.948 | 
10 | Cc1ccc(OC[C@@H](O)CN2CCC(C(O)(c3ccccc3)c3ccccc3)CC2)cc1 [Compound B46] | 100 | 
11 | NS(=O)(=O)c1ccc(OCCCN2CCC(C(O)(c3ccccc3)c3ccccc3)CC2)cc1 [Compound B24] | 14.3 | 
12 | CN(C)S(=O)(=O)c1ccc(OCCCN2CCC(C(O)(c3ccccc3)c3ccccc3)CC2)cc1 [Compound B30] | 40 | 
13 | OC(c1ccccc1)(c1ccccc1)C1CCN(CCCOc2ccc(OC(F)(F)F)cc2)CC1 [Compound B4] | 98 | 
14 | N#Cc1ccc(OCCCN2CCC(C(O)(c3cc(F)cc(F)c3)c3ccccn3)CC2)cc1 (stereo not drawn) [Compound B81] | 0.9 | 
15 | N#Cc1ccc(OCCCN2CCC(C(O)(c3ccccc3)C(F)(F)F)CC2)cc1 (stereo not drawn) [Compound B23] | 31 | 
16 | N#Cc1ccc(OCCCN2CCC(C(O)(c3ccccc3)c3ccc(F)cc3)CC2)cc1 (stereo not drawn) [Compound B13] | 77.5 | 
17 | N#Cc1ccc(OCCCN2CCC(C(O)(c3ccccc3)c3ccccc3)CC2)cc1F [Compound B6] | 26.5 | 
18 | OC(c1ccccc1)(c1ccccc1)C1CCN(CCCOc2ccc(Cl)cc2)CC1 [Compound B5] | 96 | 
19 | NS(=O)(=O)c1ccc(OCCCN2CCC(C(O)(c3cccc(F)c3)c3nccs3)CC2)cc1 (stereo not drawn) [Compound B82] | 0.354 | 
20 | N#Cc1ccc(OCCCN2CCC(C(O)(c3ccccc3)C3CCCC3)CC2)cn1 (stereo not drawn) [Compound B61] | 8.94 | 
21 | [N-]=[N+]=Nc1ccc(OCCCN2CCC(C(O)(c3ccccc3)c3ccccc3)CC2)cc1 [Compound B14] | 58 | 
22 | NCc1ccc(OCCCN2CCC([C@](O)(c3ccccc3)C3CCCC3)CC2)cc1 [Compound B27] | 13.9 | 
23 | NCc1ccc(OCCCN2CCC([C@@](O)(c3ccccc3)C3CCCC3)CC2)cc1 [Compound B28] | 13.1 | 
24 | COC(c1ccccc1)(c1ccccc1)C1CCN(CCCOc2ccc(C#N)cc2)CC1 [Compound B55] | 5.3 | 
25 | OC(c1ccccc1)(c1ccccc1)C1CCN(CCCOc2ccc(C(F)(F)F)cc2)CC1 [Compound B3] | 52 | 
26 | N#Cc1ccc(OCC(O)CN2CCC(C(O)(c3cccc(F)c3)c3ccccn3)CC2)cc1 (stereo not drawn) [Compound B86, 4-(3-(4-((3-Fluorophenyl)(hydroxy)(pyridin-2-yl)methyl)piperidin-1-yl)-2-hydroxypropoxy)benzonitrile] | 0.222 | 

Row | Compound | IC50 (menin-MLL interaction) [µM] | also measured
27 | N#CCc1ccc(OCCCN2CCC(C(O)(c3ccccc3)c3ccccc3)CC2)cc1 [Compound B40] | 17.4 | 
28 | COC(c1ccccc1)(C1CCCC1)C1CCN(CCCOc2ccc(C#N)cc2)CC1 (stereo not drawn) [Compound B62] | 0.743 | 
29 | N#Cc1ccc(OCCCN2CCC(C(O)(C3=CCCC3)c3ccccc3)CC2)cc1 (stereo not drawn) [Compound B32] | 2.08 | 
30 | COC(=O)c1ccc(OCCCN2CCC(C(O)(c3ccccc3)c3ccccc3)CC2)cc1 [Compound B16] | 86 | 
31 | CCOC(c1ccccc1)(c1ccccc1)C1CCN(CCCOc2ccc(C#N)cc2)CC1 [Compound B54] | 5.3 | 
32 | N#Cc1ccc(OCCCN2CCC(C(O)(C3CCCC3)C3CCCC3)CC2)cc1 [Compound B31] | 1.4 | 
33 | OC(c1ccccc1)(c1ccccc1)C1CCN(CCCOc2ccc(-n3ccnn3)cc2)CC1 [Compound B10, (1-(3-(4-(1H-1,2,3-triazol-1-yl)phenoxy)propyl)piperidin-4-yl)diphenylmethanol] | 29 | 
34 | OC(c1ccccc1)(c1ccccc1)C1CCN(CCCOc2ccc(-c3cccnc3)cc2)CC1 [Compound B36] | 22.6 | 
35 | CS(=O)(=O)c1ccc(OC[C@@H](O)CN2CCC(C(O)(c3ccccc3)c3ccccc3)CC2)cc1 [Compound B45] | 21 | 
36 | NCc1ccc(OCCCN2CCC(C(O)(C3=CCCC3)c3ccccc3)CC2)cc1 (stereo not drawn) [Compound B34] | 13.9 | 
37 | N#Cc1ccc(OCCCN2CCC([C@@](O)(c3ccccc3)C3CCCC3)CC2)cc1 [Compound B20] |  | differentiation as assessed by increased expression of the CD11b differentiation marker ([1]; FIG. 4): induces differentiation; differentiation as assessed by significant change in morphology ([1]; FIG. 5): induces differentiation; transforming properties of MLL-AF9 fusion protein (colony number, morphology of colonies) [2]: reduce transforming properties; apoptosis (MV4;11 [3]): induce apoptosis; differentiation (change in the CD11b expression and change in morphology of cells) (MonoMac-6): induce differentiation; apoptosis (Kasumi-1): No effect on apoptosis; cell cycle arrest (MLL leukemia cells): induce cell cycle arrest; differentiation (change in the CD11b expression and change in morphology of cells) (KOPN8): induce differentiation; apoptosis (ML-2): induce apoptosis; differentiation (change in the CD11b expression and change in morphology of cells) (MI-2): induce differentiation; differentiation (CD11b expression and morphology change) (MV4;11 [4]): induce differentiation; expression level of Hoxa9 and Meis1 (Hoxa9 and Meis1): strongly downregulates
38 | N#Cc1ccc(OC[C@H](O)CN2CCC(C(O)(c3ccccc3)C3CCCC3)CC2)cc1 (stereo partly drawn) [Compound B41] | 1.15 | 
39 | OC(c1ccccc1)(c1ccccc1)C1CCN(CCCOc2ccc(-c3ccncc3)cc2)CC1 [Compound B35, Diphenyl(1-(3-(4-(pyridin-4-yl)phenoxy)propyl)piperidin-4-yl)methanol] | 30.6 | 
40 | N#Cc1ccc(OC[C@@H](O)CN2CCC(C(O)(c3ccccc3)c3ccccc3)CC2)cc1F [Compound B51] | 15 | 
41 | N#Cc1ccc(OCCCN2CCC(C(O)(c3cccc(F)c3)c3nccs3)CC2)cc1 (stereo not drawn) [Compound B83] | 0.407 | 
42 | O[C@H](COc1ccc(OC(F)(F)F)cc1)CN1CCC(C(O)(c2ccccc2)c2ccccc2)CC1 [Compound B48] | 31 | 
43 | COc1ccc(C(O)(C2CCCC2)C2CCN(CCCOc3ccc(C#N)cc3)CC2)cn1 (stereo not drawn) [Compound B57] | 75 | 
44 | N#Cc1ccc(OCCCN2CCC(C(O)(Cc3ccccc3)C3=CCCC3)CC2)cc1 (stereo not drawn) [Compound B59] | 11.3 | 
45 | N#Cc1ccc(NCCCN2CCC(C(O)(c3ccccc3)c3ccccc3)CC2)cc1 [Compound B42] | 9.56 | 
46 | CN(C)CCOC(c1ccccc1)(c1ccccc1)C1CCN(CCCOc2ccc(C#N)cc2)CC1 [Compound B56] | 4.2 | 
47 | O[C@H](COc1ccc(Cl)cc1)CN1CCC(C(O)(c2ccccc2)c2ccccc2)CC1 [Compound B47] | 40 | 
48 | CC(=O)NCc1ccc(OCCCN2CCC(C(O)(c3ccccc3)c3ccccc3)CC2)cc1 [Compound B38] | 20.7 | 
49 | CS(=O)(=O)c1ccc(OCCCN2CCC(C(O)(c3ccccc3)c3ccccc3)CC2)cc1 [Compound B33] | 58.5 | 
50 | O=C(c1ccc(OCCCN2CCC(C(O)(c3ccccc3)C3CCCC3)CC2)cc1)C1CCCC1 (stereo not drawn) [Compound B26] | 3.95 | 
51 | COc1cccc(C(O)(C2CCCC2)C2CCN(CCCOc3ccc(C#N)cc3)CC2)c1 (stereo not drawn) [Compound B68] | 1.1 | 
52 | N#Cc1ccc(OC[C@@H](O)CN2CCC(C(O)(c3ccccc3)c3ccccc3)CC2)c(F)c1 [Compound B50] | 40 | 
